Assay results from paper PMC11882969 (Nature Communications, 2025).
Several values for one entry are separate records, joined by “and”; a condition that tells them apart may be missing. Equal entries are not always repeated.

How the values were obtained:
hCB1 [1] = target: T1, hCB1 (Homo sapiens, UniProt P21554); assay: bioSensAll ebBRET signaling profiling, hCB1; assay type: cell-based; design: host or cells: HEK293SL cells, transient PEI transfection; conditions: for Gi1 hCB1 / GoB hCB1: single replicate values, FigS6a; for Emax [95% CI]: normalized to CP-55,940; for EC50: read-out: EC50 [95% CI]
T1 sequence (P21554 whole entry): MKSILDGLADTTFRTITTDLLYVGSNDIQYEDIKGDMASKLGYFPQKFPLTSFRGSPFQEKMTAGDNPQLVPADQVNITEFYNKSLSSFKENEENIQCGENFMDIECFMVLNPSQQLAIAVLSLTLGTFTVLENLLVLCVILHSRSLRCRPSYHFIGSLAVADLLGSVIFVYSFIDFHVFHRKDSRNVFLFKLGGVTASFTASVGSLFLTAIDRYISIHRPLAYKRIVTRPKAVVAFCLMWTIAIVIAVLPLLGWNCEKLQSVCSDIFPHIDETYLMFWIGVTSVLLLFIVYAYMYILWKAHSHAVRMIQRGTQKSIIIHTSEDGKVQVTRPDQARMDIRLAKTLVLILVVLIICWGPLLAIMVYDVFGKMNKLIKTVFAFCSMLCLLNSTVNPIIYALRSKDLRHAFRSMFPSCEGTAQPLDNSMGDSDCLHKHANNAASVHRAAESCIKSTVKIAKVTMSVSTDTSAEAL

CB1 (rCB1) = CB1 (rCB1) (Rattus norvegicus, UniProt P20272); assay: Radioligand competition binding, [3H]-CP-55,940, rat brain membranes
Sequence of CB1 (rCB1) (P20272 whole entry): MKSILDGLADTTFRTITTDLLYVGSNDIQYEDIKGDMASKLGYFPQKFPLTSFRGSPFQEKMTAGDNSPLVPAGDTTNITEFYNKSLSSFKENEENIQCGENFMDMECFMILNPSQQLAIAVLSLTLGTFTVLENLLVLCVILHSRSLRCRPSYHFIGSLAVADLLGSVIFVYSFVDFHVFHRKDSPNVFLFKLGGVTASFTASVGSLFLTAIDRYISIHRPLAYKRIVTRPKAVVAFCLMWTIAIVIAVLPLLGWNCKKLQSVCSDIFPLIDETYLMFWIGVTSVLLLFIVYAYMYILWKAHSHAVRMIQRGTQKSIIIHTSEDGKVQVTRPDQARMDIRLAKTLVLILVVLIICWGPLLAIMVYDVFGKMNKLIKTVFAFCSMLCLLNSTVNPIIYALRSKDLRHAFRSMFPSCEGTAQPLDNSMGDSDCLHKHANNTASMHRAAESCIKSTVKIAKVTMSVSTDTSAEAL

hCB1 [2] = target: T1, hCB1; assay: Tango β-arrestin-2 recruitment, HTLA cells, CB1R; assay type: cell-based; design: expressed in transfected cells; host or cells: HTLA cells (gift of R. Axel), transient transfection
hCB2 = hCB2 (Homo sapiens, UniProt P34972); assay: TRUPATH BRET2 GoA dissociation, HEK293T; assay type: cell-based; design: expressed in transfected cells; host or cells: HEK293T cells (ATCC: CRL-3216), transient co-transfection; conditions: for functional response, concentration-response point (FigS7e, normalized): Log[drug], replicate columns
Sequence of hCB2 (P34972 whole entry): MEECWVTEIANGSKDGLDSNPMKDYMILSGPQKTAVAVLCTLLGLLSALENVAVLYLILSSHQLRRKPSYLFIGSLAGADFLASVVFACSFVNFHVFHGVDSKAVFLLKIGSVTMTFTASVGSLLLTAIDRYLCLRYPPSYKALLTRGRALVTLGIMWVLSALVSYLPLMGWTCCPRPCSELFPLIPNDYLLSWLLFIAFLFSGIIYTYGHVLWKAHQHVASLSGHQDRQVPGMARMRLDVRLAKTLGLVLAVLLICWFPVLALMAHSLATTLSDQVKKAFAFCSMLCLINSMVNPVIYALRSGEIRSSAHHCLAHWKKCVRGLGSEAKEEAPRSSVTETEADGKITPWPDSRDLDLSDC

SMILES: COC(=O)[C@@H]1[C@@H]2CCC[C@@H]2CN1C(=O)c1cc(C)n(-c2cccc(C(F)(F)F)c2)n1 [‘6439]
- Gi1 hCB1 (hCB1 [1]; Log [Compound] (M) -11.0177): -0.651
- GoB hCB1 (hCB1 [1]; Log [Compound] (M) -11.0177): -1.557
- Gi1 hCB1 (hCB1 [1]; Log [Compound] (M) -11.4949): -0.6201
- GoB hCB1 (hCB1 [1]; Log [Compound] (M) -11.4949): 1.626
- Gi1 hCB1 (hCB1 [1]; Log [Compound] (M) -11.9208): -0.3581
- GoB hCB1 (hCB1 [1]; Log [Compound] (M) -11.9208): -0.04642
- Gi1 hCB1 (hCB1 [1]; Log [Compound] (M) -12.3979): 0.9369
- GoB hCB1 (hCB1 [1]; Log [Compound] (M) -12.3979): 0.02551
- Gi1 hCB1 (hCB1 [1]; Log [Compound] (M) -12.8861): 1.631
- GoB hCB1 (hCB1 [1]; Log [Compound] (M) -12.8861): 1.572
- Gi1 hCB1 (hCB1 [1]; Log [Compound] (M) -13): -0.9439 and 1.0911
- GoB hCB1 (hCB1 [1]; Log [Compound] (M) -13): -0.55 and -0.478
- pEC50 [95% CI] (hCB1 [1]; hCB1 Gi1): 7.2 [7.1 – 7.2]
- Emax [95% CI] (hCB1 [1]; hCB1 Gi1): 95 [93 – 96]
- pEC50 [95% CI] (hCB1 [1]; hCB1 GoB): 7.2 [7.2 – 7.3]
- Emax [95% CI] (hCB1 [1]; hCB1 GoB): 100 [99 – 101]
- pEC50 [95% CI] (hCB1 [1]; hCB1 Gz): 6.5 [5.9 – 7.0]
- Emax [95% CI] (hCB1 [1]; hCB1 Gz): 162 [125 –199]
- EC50 (hCB1 [1]; hCB1 Gi1): 65.5 nM
- EC50 (hCB1 [1]; hCB1 GoB): 60.9 nM
- EC50 (hCB1 [1]; hCB1 Gz): 339 nM
- pKi [95% CI] (CB1 (rCB1); rCB1): 6.6 [6.4 – 6.8]
- Ki (CB1 (rCB1); read-out: Ki [95% CI], rCB1, [3H]-CP-55,940): 251 nM
- response, replicate values of concentration-response curve (FigS7f) (hCB1 [2]; Log[drug], M = -4.52): -10.8475 and 13.7559 and -1.3408 and 30.128 and 34.5335 and 23.984 and 49.6721 and 28.9692 and 37.5272
- response, replicate values of concentration-response curve (FigS7f) (hCB1 [2]; Log[drug], M = -5): 12.97 and -6.259 and -29.1004 and -18.7713 and 7.052 and 41.6727 and 31.5861 and -0.2412 and 17.8549 and 115.231 and 93.3593 and 69.1731
- response, replicate values of concentration-response curve (FigS7f) (hCB1 [2]; Log[drug], M = -5.52): -14.7516 and -1.011 and 3.958 and 21.4628 and 26.9697 and -2.702 and -24.3795 and -8.092 and 23.1695 and 55.5034 and 99.9754 and 83.8088
- response at Log[drug], M -5.52 (FigS4e) (hCB1 [2]; Log[drug], M = -5.52, individual replicates): 41.0598 and 42.1112 and 37.5809 and 36.0059 and 27.2068 and 23.0093 and 28.7041 and 23.0465 and 29.4359 and 31.2692 and 37.5598 and 31.3786
- response, replicate values of concentration-response curve (FigS7f) (hCB1 [2]; Log[drug], M = -6): -7.78 and 1.232 and -8.579 and 16.9776 and 8.83 and 54.3719 and -17.0743 and 6.68 and 7.903 and 46.3174 and 81.0931 and 82.3871
- response at Log[drug], M -6 (FigS4e) (hCB1 [2]; Log[drug], M = -6, individual replicates): 26.6779 and 28.882 and 31.009 and 30.2093 and 13.1731 and 19.3667 and 17.0092 and 18.0259 and 28.822 and 23.6752 and 23.7677 and 25.0376
- response, replicate values of concentration-response curve (FigS7f) (hCB1 [2]; Log[drug], M = -6.52): 6.949 and 23.0344 and 26.685 and -30.9662 and -12.5345 and 9.44 and -7.445 and 20.4415 and 28.8782 and 41.1229 and 58.9482 and 96.877
- response at Log[drug], M -6.52 (FigS4e) (hCB1 [2]; Log[drug], M = -6.52, individual replicates): 20.6989 and 18.775 and 18.227 and 14.6552 and 8.92 and 7.4713 and 4.648 and 5.829 and 9.707 and 10.7245 (2×) and 6.125
- response, replicate values of concentration-response curve (FigS7f) (hCB1 [2]; Log[drug], M = -7): 31.5144 and 45.4069 and -35.2101 and -37.1897 and 1.93 and 0.2842 and 7.478 and -20.5097 and -17.3775 and 49.0331 and 80.6374 and 65.8924
- response at Log[drug], M -7 (FigS4e) (hCB1 [2]; Log[drug], M = -7, individual replicates): 6.9232 and 8.043 and 10.8845 and 9.988 and 0.5556 and -1.865 and 0.4774 and 0.6189 and 2.467 and 3.148 and 2.635 and 4.207
- response, replicate values of concentration-response curve (FigS7f) (hCB1 [2]; Log[drug], M = -7.52): -4.763 and -11.0123 and 28.1301 and -8.049 and -20.0319 and -11.1013 and -22.9649 and -19.4286 and 2.9819 and 44.3307 and 18.8869 and 45.9893
- response at Log[drug], M -7.52 (FigS4e) (hCB1 [2]; Log[drug], M = -7.52, individual replicates): 6.822 and 6.684 and 9.44 and 7.52 and -3.124 and -0.9675 and -2.021 and -2.681 and -0.3421 and -0.05622 and 2.349 and 1.533
- response at Log[drug], M -8 (FigS4e) (hCB1 [2]; Log[drug], M = -8, individual replicates): 5.884 and 9.216 and 9.707 and 9.61 and -1.035 and -0.111 and -1.31 and -2.509 and 0.4231 and 1.197 and 7.663 and 1.289
- response at Log[drug], M -8.52 (FigS4e) (hCB1 [2]; Log[drug], M = -8.52, individual replicates): 12.6416 and 8.6666 and 7.701 and 11.5559 and 0.09453 and -1.259 and 2.111 and -1.3123 and 0.08722 and 0.8217 and 1.887 and 4.054
- response at Log[drug], M -9 (FigS4e) (hCB1 [2]; Log[drug], M = -9, individual replicates): 6.15 and 10.745 and 10.5633 and 11.2546 and -2.544 and -0.8488 and 0.7085 and -0.4422 and 2.383 and 3.898 and 2.695 and 3.787
- response, replicate values of concentration-response curve (FigS7f) (hCB1 [2]; Log[drug], M = -9.52): -11.8869 and 10.4349 and -26.9456 and -12.2027 and 18.9813 and -12.6008 and 11.5803
- response at Log[drug], M -9.52 (FigS4e) (hCB1 [2]; Log[drug], M = -9.52, individual replicates): 7.12 and 7.04 and 8.157 and 9.473 and -0.8081 and -1.207 and -0.4666 and -1.821 and 4.375 and 2.502 and 0.01377 and 0.5555
- response, replicate values of concentration-response curve (FigS7f) (hCB1 [2]; Log[drug], M = -10): 17.8121 and -5.27 and 8.977 and 22.6969 and 39.8414 and 41.3409 and 56.1992 and 5.841 and 17.8346 and -4.352 and 10.4482 and -28.6471
- response at Log[drug], M -10 (FigS4e) (hCB1 [2]; Log[drug], M = -10, individual replicates): 8.321 and 7.43 and 8.2855 and 10.5544 and 1.814 and -2.821 and -0.4869 and -0.1291 and 2.41 and 4.577 and 0.8034 and 1.18
- response at Log[drug], M -10.52 (FigS4e) (hCB1 [2]; Log[drug], M = -10.52, individual replicates): 8.25 and 8.706 and 9.026 and 10.1955 and -1.024 and 0.4442 and -0.6414 and 0.7573 and 1.648 and 0.8217 and 2.116 and 5.22
- response at Log[drug], M -11 (FigS4e) (hCB1 [2]; Log[drug], M = -11, individual replicates): 3.256 and 4.195 and 6.189 and 8.184 and 0.0864 and 0.615 and -0.08844 and -0.05998 and 3.273 and 3.861 and 4.338 and 1.74
- response at Log[drug], M -11.52 (FigS4e) (hCB1 [2]; Log[drug], M = -11.52, individual replicates): 5.192 and 4.514 and 4.754 and 3.593 and 1.237 and 0.5215 and -0.05998 and -1.081 and -0.5647 and 0.7391 and 0.6014 and 3.236
- response at Log[drug], M -12 (FigS4e) (hCB1 [2]; Log[drug], M = -12, individual replicates): 0.3534 and 0.1806 and 0.07866 and -0.6126 and -2.04 and 1.058 and -0.6333 and 1.615 and -1.51 and 0.6106 and 0.6473 and 0.2525
- EC50 (hCB1 [2]; hCB1, read-out: Tango ß-arrestin recruitment EC50): > 10 µM
- EC50 (hCB2): 97.1 nM
- BRET2 + GoA Emax (hCB2; % of CP-55,940): 81% [34 – 128]
- functional response, concentration-response point (FigS7e, normalized) (hCB2; M = -5): 12.9272 and 15.9912 and 13.3933 and 14.1917 and 9.02 and 8.9115 and 9.964 and 9.677 and 16.1327 and 18.1614 and 17.7797 and 17.4918
- functional response, concentration-response point (FigS7e, normalized) (hCB2; M = -5.52): 13.7946 and 14.1528 and 14.7009 and 15.5942 and 7.819 and 9.861 and 11.3112 and 10.248 and 13.5348 (2×) and 16.0255 and 15.2556
- functional response, concentration-response point (FigS7e, normalized) (hCB2; M = -6): 13.5098 and 11.3391 and 11.5247 and 10.1826 and 7.139 and 7.697 and 10.1371 and 9.4066 and 13.2838 and 11.7338 and 12.1556 and 10.2207
- functional response, concentration-response point (FigS7e, normalized) (hCB2; M = -6.52): 8.245 and 8.18 and 7.1316 and 8.582 and 5.652 and 4.45 and 4.542 and 4.824 and 8.731 and 6.786 and 7 and 7.151
- functional response, concentration-response point (FigS7e, normalized) (hCB2; M = -7): 3.477 and 2.251 and 1.336 and 1.824 and 2.04 and 2.129 and 1.242 and 0.8388 and 2.913 and 2.96 and 2.756 and 1.624
- functional response, concentration-response point (FigS7e, normalized) (hCB2; M = -7.52): 0.5378 and 0.2401 and 2.191 and 0.8701 and 1.326 and 0.4303 and 0.552 and 0.1165 and 1.032 and 0.8075 and 1.393 and 1.507
- functional response, concentration-response point (FigS7e, normalized) (hCB2; M = -8): 0.2919 and 0.01139 and 0.3868 and 0.4645 and -0.1973 and 0.3762 and 0.9064 and 1.539 and 0.3891 and 0.4427 and 0.6703 and 0.6301
- functional response, concentration-response point (FigS7e, normalized) (hCB2; M = -8.52): -0.3369 and -0.3039 and -0.3274 and -0.06361 and -0.07458 and 0.1558 and -0.006646 and 0.09378 and 0.05117 and 0.1425 and 0.3472 and 0.4422
- functional response, concentration-response point (FigS7e, normalized) (hCB2; M = -12): 0.6997 and -0.1013 and -0.3699 and -0.2285
